Test results taken from paper PMC13047053, “Crystal structure of human INPP5K with an allosteric inhibitor reveals the structural basis for species specific potency” (Scientific Reports, 2026).
Entries after “also recorded” stand apart in the source; their conditions may differ.

Assays:
hamster INPP5K = molecular target: T1, hamster INPP5K (Cricetulus griseus, UniProt G3HTF6); test: Inorganic phosphate detection assay for phosphatase inhibition; type: biochemical; settings: 20 µM diC8-PI(3,4,5)P3, 20 min
T1 construct: hamster INPP5K (aa 1–453, UniProt ID: G3HTF6); FLAG (N); made in house; host or cells: Expi293 cells (pcDNA3.4, transient)
T1 sequence (G3HTF6 1-451): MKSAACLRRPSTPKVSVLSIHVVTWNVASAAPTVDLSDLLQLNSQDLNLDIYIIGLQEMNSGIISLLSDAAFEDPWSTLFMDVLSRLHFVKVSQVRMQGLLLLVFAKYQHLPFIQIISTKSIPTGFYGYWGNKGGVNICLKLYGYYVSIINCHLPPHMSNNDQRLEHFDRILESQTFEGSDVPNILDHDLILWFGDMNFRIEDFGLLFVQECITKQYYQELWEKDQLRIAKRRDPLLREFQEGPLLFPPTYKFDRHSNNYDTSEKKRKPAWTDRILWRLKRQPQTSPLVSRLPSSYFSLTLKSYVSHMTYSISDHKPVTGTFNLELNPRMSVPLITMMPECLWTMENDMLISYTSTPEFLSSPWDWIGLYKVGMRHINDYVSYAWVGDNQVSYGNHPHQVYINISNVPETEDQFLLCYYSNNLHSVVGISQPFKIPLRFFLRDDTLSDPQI
From the text: (§1) The protein purification is described in detail elsewhere. Briefly, full-length human INPP5K (amino acids 1–448, UniProt ID: Q9BT40), rat INPP5K (aa 1–446, UniProt ID: Q9R0B6), mouse INPP5K (aa 1–468, UniProt ID: Q8C5L6), hamster INPP5K (aa 1–453, UniProt ID: G3HTF6), guinea pig INPP5K (aa 1–473, UniProt ID: H0V8T7) containing an N-terminal FLAG-tag, full-length human SHIP2 (aa 1–1 258) containing a C-terminal FLAG-tag, and full-length human PIPP (amino acids 1–1 006) containing an N-terminal His8-tag were all cloned into the pcDNA3.4 expression vector and transiently expressed in Expi293 cells (Thermo Fisher Scientific). The PH domain of human TAPP1 (amino acids 180–404) containing an N-terminal GST-tag was expressed in a pGEX6P1 expression vector (GE Healthcare) in E. coli strain BL21 ((Merck KGaA, Darmstadt, Germany)), following IPTG induction at 37 °C for 5 h. All the FLAG-tagged INPP5Ks and hSHIP2 were purified using affinity columns containing DDDDK-tagged protein purification gel (MBL, Medical & Biological Laboratories Co., Ltd., Tokyo, Japan), followed by size-exclusion chromatography with Superdex 200 columns (GE Healthcare). His8-tagged hPIPP was purified using Ni–NTA Superflow (Qiagen) and Superdex 200 columns. The GST-tagged hTAPP1 domain was purified using a Glutathione Sepharose 4B (GE Healthcare) and Superdex 200 columns. The purity of the protein obtained was evaluated using SDS-PAGE.
(§2) The release of inorganic phosphate was measured using a PiPer Phosphate Assay Kit (Thermo Fisher Scientific), according to the manufacturer’s instructions, but with some modifications. Enzyme reactions were performed in a final volume of 10 µL per well in a 384-well nonbinding black plates (Greiner Bio-One International, GmbH, Kremsmünster, Austria). The reaction mixtures containing 20 µM diC8-PI(3,4,5)P₃ and each enzyme (human INPP5K, mouse INPP5K, rat INPP5K, hamster INPP5K, guinea pig INPP5K, human SHIP2, or human PIPP) in reaction buffer (50 mM Tris–HCl pH 7.0, 150 mM NaCl, 7.5 mM MgCl₂, 0.03% Igepal CA-630, 0.03% gelatin), with or without various concentrations of inhibitor, were incubated for 20 min at room temperature. The reactions were then stopped and detection reactions were initiated by adding 5 µL of detection mix 1 (60 mM EDTA, 12 U/mL maltose phosphorylase, and 0.6 mM maltose in 100 mM Tris–HCl pH 8.0). After incubation for 60 min at room temperature, 5 µL of detection mix 2 (8 U/mL glucose oxidase, 0.8 U/mL HRP, and 100 µM Amplex Red in 100 mM Tris–HCl pH 8.0) was added, and the mixture was incubated for a further 30 min at room temperature in the dark. The fluorescence generated was measured using an Envision plate reader at 531/590 nm (excitation/emission), and the percentage inhibition was calculated as described above.

rat INPP5K = molecular target: T2, rat INPP5K (Rattus norvegicus, UniProt A0A0G2K2Z2); test: as above; type: biochemical
T2 construct: rat INPP5K (aa 1–446, UniProt ID: Q9R0B6); FLAG (N); made in house; host or cells: Expi293 cells (pcDNA3.4, transient)
T2 sequence (A0A0G2K2Z2 1-446): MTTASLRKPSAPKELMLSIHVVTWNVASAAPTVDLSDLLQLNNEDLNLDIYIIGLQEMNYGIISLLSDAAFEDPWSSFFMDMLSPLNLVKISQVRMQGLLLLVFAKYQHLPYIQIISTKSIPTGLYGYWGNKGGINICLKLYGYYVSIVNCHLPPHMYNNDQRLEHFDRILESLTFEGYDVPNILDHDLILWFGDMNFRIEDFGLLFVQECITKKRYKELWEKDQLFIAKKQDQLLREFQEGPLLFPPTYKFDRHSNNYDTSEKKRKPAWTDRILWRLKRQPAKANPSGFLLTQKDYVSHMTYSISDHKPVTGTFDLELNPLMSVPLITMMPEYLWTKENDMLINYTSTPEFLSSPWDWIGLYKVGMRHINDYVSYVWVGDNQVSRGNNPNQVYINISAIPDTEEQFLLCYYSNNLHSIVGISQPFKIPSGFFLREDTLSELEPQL
From the text: as §1, §2

CC(C)c1sc(NC(=O)c2ccccc2)c(C(=O)O)c1-c1ccccc1 [CPD-1]
IC50 (hamster INPP5K): 8.2 µM
IC50 (rat INPP5K; inorganic phosphate detection assay, 20 µM diC8-PI(3,4,5)P3, 20 min): > 100 µM
inhibition of rat INPP5K (in words) (rat INPP5K; result in words): no inhibition; also recorded: inactive
